Assays:
Mouse splenocytes = assay: XTT cell viability assay, PHA-stimulated splenocytes; assay type: cell-based; conditions: 72 hours; for IC50: Splenocyte; for IC50 / XTT IC50: mouse splenocytes, 25-400 nM
Protocol: Cell viability was assessed by the 2,3 bis [2-Methoxy-4-nitro-5-sulfophenyl]-2H-tetrazolium-5-carboxanilide (XTT) assay (Biological Industries, Kibbutz Beit Hemeek, Israel), which measures the reduction of a tetrazolium component (XTT) into soluble formazan product by the mitochondria of viable cells. The intensity of the dye obtained is proportional to the number of metabolic active cells. On the day of measurement, cells were washed and XTT was added according to the manufacturer's instructions. Plates were incubated at 37° C. for 2-5 hours. The absorbance was read at 450 nm.
Mouse splenocytes were removed and spleenocytes were plated (250,000 cell/well) in DMEM+10% FCS+P/S+Q and […] Phytohaemaglutinin (PHA), in the presence of elevated concentrations (25-400 nM) of RAM-0 (Compound 1), RAM-1 (Compound 4), RAM-2 (Compound 2) or RAM-3 (Compound 3) for 72 hours. Cells cultured without PHA served as control. Control mice at zero are mice splenocytes with PHA stimulation.
Following incubation, cell viability was determined by XTT assay, as described above.

[1] = test system: MOG35-55 EAE in C57BL/6J mice; assay: MOG35-55 EAE prevention (immunization) model; assay type: in vivo; conditions: Mus musculus
Protocol: Mice: Eight-weeks-old female C57BL/6J mice (15-20 g, Harlan laboratories, Rehovot, Israel) were used in all experiments. Animal maintenance and experimental protocols were performed in accordance with the Israeli Council for Animal Care guidelines and approved by Sheba IRB Animal Care Committee. Mice were kept in an SPF environment, maintained on a 12-h light/dark cycle at a constant environmental temperature with free access to food and water in their home cages.
Induction of MOG35-55 EAE (Prevention Model): EAE (Experimental Autoimmune Encephalomyelitis) was induced in 8 week old female C57BL/6J mice (15-20 g, Harlan laboratories, Rehovot, Israel) by immunization with an emulsion containing 300 μg of purified myelin oligodendrocyte glycoprotein (MOG) peptide ([…], corresponding to residues 35-55; obtained from (Difco, Detroit, Mich.) in saline and an equal volume of complete Freund's adjuvant containing 5 mg H37RA (Difco, Detroit, Mich.). 0.2 ml of the inoculum was injected subcutaneously. In addition, 300 ng of Bordetella pertusis toxin (Sigma) in 0.2 ml saline was injected intraperitoneally at the day of induction and two days later.
Oral gavages with the tested compound, at various concentrations ranging from 3 mg/kg-30 mg/kg in PBS or 50 mM NaH2PO4 (PH 4.5), or with vehicle only, were initiated at day of immunization. Mice were monitored daily for clinical signs of EAE, scored as: 1, flaccid tail; 2, forelimb weakness and poor righting ability; 3, hind limb paralysis; 4, quadriplegia; 5, moribund. Animal reaching a score of 4 were scarified using CO2.
Treatment was stopped once 30% of the vehicle-treated animals scored 1 on the EAE score. […]
The therapeutic index (LD50/ED50), which is also referred to herein as Safety Margin (SM), was then determined based on the EAE model. ED50 is the minimum effective dose observed for 50% of the tested animals.

[2] = Toxicity (LD50, survival) in the EAE model, continuous administration; assay type: in vivo; conditions: C57BL/6J, mouse, in vivo, oral; EAE prevention model, continuous administration
Protocol: (§1) The animals were evaluated for signs of acute toxicity and survival during the entire administration period in the EAE model.
(§2) The therapeutic index (LD50/ED50), which is also referred to herein as Safety Margin (SM), was then determined based on the EAE model.

C57BL/6J mice = assay: as above; assay type: in vivo; conditions: EAE prevention model
Protocol: as §1, §2

Solubility in mQ water = assay type: physicochemical; conditions: 50 mg in 0.5 mL mQ water, room temperature
Protocol: The solubility of Compounds 1 and 10 was determined by dissolving 50 mg of the tested compound in 0.5 mL of mQ water, at room temperature.

POL-I = conditions: human cancer cell lines; cited from earlier work
[3] = test system: Experimental Autoimmune Encephalomyelitis (EAE); conditions: cited from earlier work

Question: For `Cc1cnc(CNC(=O)c2c(=N)c3ccc(N4CCCN(C)CC4)nc3n3c2sc2ccccc23)cn1` [Compound 4, 5-imino-2-(4-methyl-1,4-diazepan-1-yl)-N-((5-methylpyrazin-2-yl)methyl)-5H-benzo[4,5]thiazolo[3,2-a][1,8]naphthyridine-6-carboxamide], which “suppression of splenocyte proliferation compared to Compound 1 (XTT)” value (Mouse splenocytes) is on record?
Answer: Its value is “dose response curve similar to RAM-0 (Compound 1)”.

Question: What about the IC50 (Mouse splenocytes) of the same compound?
Answer: The IC50 was 50 nM.

Question: With `CCC/N=c1/c(C(=O)NCc2cnc(C)cn2)c2sc3ccccc3n2c2nc(N3CCCN(C)CC3)ccc12` [Compound 6] as the compound, how does the IC50 (Mouse splenocytes) read?
Answer: Its IC50 is 50 nM.

Question: For `CO/N=c1/c(C(=O)NCc2cnc(C)cn2)c2sc3ccccc3n2c2nc(N3CCCN(C)CC3)ccc12` [Compound 8], which IC50 (Mouse splenocytes) is on record?
Answer: The IC50 was 50 nM.

Question: For `Cc1cnc(CNC(=O)c2/c(=N/C(C)C)c3ccc(N4CCCN(C)CC4)nc3n3c2sc2ccccc23)cn1` [Compound 7], which IC50 (Mouse splenocytes) is on record?
Answer: The IC50 was 50 nM.

Question: For `C/N=c1/c(C(=O)NCc2cnc(C)cn2)c2sc3ccccc3n2c2nc(N3CCCN(C)CC3)ccc12` [Compound 5, (E/Z)-2-(4-methyl-1,4-diazepan-1-yl)-5-(methylimino)-N-((5-methylpyrazin-2-yl)methyl)-5H-benzo[4,5]thiazolo[3,2-a][1,8]naphthyridine-6-carboxamide], which IC50 (Mouse splenocytes) is on record?
Answer: The IC50 was 50 nM.

Question: With `Cc1cnc(CNC(=O)c2c(Cl)c3ccc(N4CCCN(C)CC4)nc3[n+]3c2sc2ccccc23)cn1` [Compound 2, 5-chloro-2-(4-methyl-1,4-diazepan-1-yl)-6-(((5-methylpyrazin-2-yl)methyl)carbamoyl)benzo[4,5]thiazolo[3,2-a][1,8]naphthyridin-12-ium] as the compound, how does the “suppression of splenocyte proliferation compared to Compound 1 (XTT)” value (Mouse splenocytes) read?
Answer: Its value is “no substantial effect”.

Question: What about the “XTT IC50” value (Mouse splenocytes) of the same compound?
Answer: Its value is “No Effect”.

Question: Which “effectiveness in suppressing proliferation compared to Compound 1” value (Mouse splenocytes) does the source give for `Cc1cnc(CNC(=O)c2c(=S)c3ccc(N4CCCN(C)CC4)nc3n3c2sc2ccccc23)cn1` [Compound 3, 2-(4-methyl-1,4-diazepan-1-yl)-N-((5-methylpyrazin-2-yl)methyl)-5-thioxo-5H-benzo[4,5]thiazolo[3,2-a][1,8]naphthyridine-6-carboxamide] here?
Answer: Its value is 6 folds.

Question: And the IC50 (Mouse splenocytes)?
Answer: The IC50 was 20 nM.

Question: With `Cc1cnc(CNc2nc(=O)nc3c4ccc(N5CCCN(C)CC5)nc4n4c(sc5ccccc54)c2-3)cn1` [Compound 9] as the compound, how does the “XTT IC50” value (Mouse splenocytes) read?
Answer: Its value is “No Effect”.

Question: With `Cc1cnc(CNC(=O)c2c(=O)c3ccc(N4CCCN(C)CC4)nc3n3c2sc2ccccc23)cn1` [Compound 1, 2-(4-methyl-1,4-diazepan-1-yl)-N-((5-methylpyrazin-2-yl)methyl)-5-oxo-5H-benzo[4,5]thiazolo[3,2-a][1,8]naphthyridine-6-carboxamide, reference compound] as the compound, how does the IC50 (Mouse splenocytes) read?
Answer: The IC50 was 50 nM.

Question: And the ED50 [1]?
Answer: Its ED50 is 12.5 mg/kg.

Question: And the LD50 [2]?
Answer: The LD50 was 25 mg/kg.

Question: What about the “SM (therapeutic index LD50/ED50)” value (C57BL/6J mice) of the same compound?
Answer: The value was 2.

Question: What about the solubility (Solubility in mQ water) of the same compound?
Answer: Its solubility is “dissolved only in a pH 4.5 buffered solution after vigorous stirring for 30 minutes”.

Question: What about the POL-I activity (POL-I) of the same compound?
Answer: Its POL-I activity is “inhibited POL-I activity”.

Question: And the EAE disease severity ([3]; administered at clinical disease onset)?
Answer: Its EAE disease severity is “reduce the disease severity”.

Question: What about the EAE prevention ([3]; administered at disease induction) of the same compound?
Answer: The EAE prevention was “prevent animal Experimental Autoimmune Encephalomyelitis (EAE)”.
